Data reported in US5118681A (priority 1989, dated 1992).
Values after ≈ are worked out from the molar mass of the structure shown.

Key:
[1] = test system: Piricularia oryzae; test: whole plant or invertebrate; assay type: in vivo; conditions: Pyricularia oryzae, read-out: % control RB
[2] = test system: Erysiphe graminis (f. sp. tritici); test: whole plant or invertebrate; assay type: in vivo; conditions: Blumeria graminis; read-out: % control WPM
[3] = test system: Pellicularia filamentosa (f. sp. sasiki); test: whole plant or invertebrate; assay type: in vivo; conditions: 120 h; read-out: % control RSB
[4] = test system: Phytophthora infestans; test: whole plant or invertebrate; assay type: in vivo; conditions: Phytophthora infestans, in Solanum lycopersicum, 96 h, read-out: % control TLB
[5] = test system: Pseudoperonospora cubensis; test: whole plant or invertebrate; assay type: in vivo; conditions: Pseudoperonospora cubensis, in Cucumis sativus, 168 h; read-out: % control CDM
[6] = test system: Puccinia recondita (f. sp. tritici Races PKB and PLD); test: whole plant or invertebrate; assay type: in vivo; conditions: Puccinia recondita, 240 h; read-out: % control WLR
[7] = test system: Pseudomonas fluorescens; test: Minimum Inhibitory Concentration Test, alternate (Table 4), Ps.fl; assay type: cell-based; conditions: Pseudomonas fluorescens, TSB, 72 hours, 30° C
Method: (§1) A 125 μl aliquot of 10,000 ppm test compound in acetone was added to 4.88 ml of TSB to provide a 250 ppm solution. From this solution, 100 μL was transferred to the first row of two microtiter plate columns. Both replicates and five additional compounds were all serially diluted 1:1 to a final concentration of 0.8 ppm in TSB.
(§2) Inoculation was accomplished by diluting a 24 hr Ps fl culture, four mls per 36 mls of phosphate buffer solution. A Dynatech autoinoculator was used to transfer 1.5 μl of this cell suspension to the microtiter plates. The plates were incubated at 30° C. for 3 days before the lowest concentration at which no growth occurs was recorded in the database. The SOK data and MIC test data on Ps.fl, Ps.ae, E.c, and S.a. bacteria and Candida albicans (C.alb), A.n and A.p fungi are listed in Table 4.

[8] = test system: A.n; test: Minimum Inhibitory Concentration Test, alternate (Table 4), A.n; assay type: cell-based, Aspergillus niger; conditions: Aspergillus niger, TSB, 72 hours
Method: as §1, §2

CCCCCCCCNC(=O)/C=C\SC(C(=O)NCCCC)C(=O)OCC (stereo not drawn) [Example 13, N-n-octyl-cis-3-[2-(ethyl-N-n-butylmalonamido)thio]acrylamide]
pest or weed control at 200 ppm [1]: 50%
pest or weed control at 200 ppm [2]: 75%
pest or weed control at 200 ppm [3]: 0%
pest or weed control at 200 ppm [4]: 80%
pest or weed control at 200 ppm [5]: 99%
pest or weed control at 200 ppm [6]: 50%

CCCCCCCCNC(=O)/C=C\SC(C(=O)NCC(C)C)C(=O)OCC (stereo not drawn) [Example 14, N-n-octyl-cis-3-[2-(ethyl-N-(2-methylpropyl)malonamido)thio]acrylamide]
pest or weed control at 200 ppm [1]: 0%
pest or weed control at 200 ppm [2]: 75%
pest or weed control at 200 ppm [3]: 0%
pest or weed control at 200 ppm [4]: 50%
pest or weed control at 200 ppm [5]: 95%
pest or weed control at 200 ppm [6]: 50%

CCCCCCCCNC(=O)/C=C\SC(C(=O)NCCC)C(=O)OCC (stereo not drawn) [Example 15, N-n-octyl-cis-3-[2-(ethyl-N-n-propylmalonamido)thio]acrylamide]
pest or weed control at 200 ppm [1]: 40%
MIC [7]: > 500 mg/L
pest or weed control at 200 ppm [2]: 25%
MIC [8]: 63 mg/L (≈ 163 µM)
pest or weed control at 5200 ppm [3]: 25%
pest or weed control at 200 ppm [4]: 89%
pest or weed control at 200 ppm [5]: 100%
pest or weed control at 200 ppm [6]: 62%

CCCCCCCCNC(=O)/C=C\SC(C(=O)NC(C)CC)C(=O)OCC (stereo not drawn) [Example 16, N-n-octyl-cis-3-[2-(ethyl-N-(1-methylpropyl)malonamido)thio]acrylamide]
pest or weed control at 200 ppm [1]: 40%
MIC [7]: > 500 mg/L
pest or weed control at 200 ppm [2]: 0%
MIC [8]: > 500 mg/L
pest or weed control at 200 ppm [3]: 0%
pest or weed control at 200 ppm [4]: 47%
pest or weed control at 200 ppm [5]: 42%
pest or weed control at 200 ppm [6]: 72%

CCCCCCCCNC(=O)/C=C\SC(C(=O)NCCCCCC)C(=O)OCC (stereo not drawn) [Example 17, N-n-octyl-cis-3-[2-(ethyl-N-n-hexylmalonamido)thio]acrylamide]
pest or weed control at 200 ppm [1]: 0%
MIC [7]: > 500 mg/L
pest or weed control at 200 ppm [2]: 0%
MIC [8]: > 500 mg/L
pest or weed control at 200 ppm [3]: 0%
pest or weed control at 200 ppm [4]: 90%
pest or weed control at 200 ppm [5]: 100%
pest or weed control at 200 ppm [6]: 75%

CCCCCCCCNC(=O)/C=C\SC(C(=O)NCCCCCC#N)C(=O)OCC (stereo not drawn) [Example 27, N-n-octyl-cis-3-{2-[ethyl-N-(5-cyanopentyl)malonamido]thio}acrylamide]
pest or weed control at 200 ppm [1]: 98%
MIC [7]: > 500 mg/L
pest or weed control at 200 ppm [2]: 0%
MIC [8]: > 500 mg/L
pest or weed control at 200 ppm [3]: 0%
pest or weed control at 200 ppm [4]: 100%
pest or weed control at 200 ppm [5]: 100%

CCCCCCCCNC(=O)/C=C\SC(C(=O)Nc1ccc(Cl)cc1C#N)C(=O)OCC (stereo not drawn) [Example 43, N-n-octyl-cis-3-{2-[ethyl-N-(2-cyano-4-chlorophenyl)malonamido]thio}acrylamide]
pest or weed control at 100 ppm [1]: 100%
pest or weed control at 100 ppm [2]: 50%
pest or weed control at 100 ppm [3]: 0%
pest or weed control at 100 ppm [4]: 80%
pest or weed control at 100 ppm [5]: 100%
pest or weed control at 100 ppm [6]: 75%

CCCCCCCCNC(=O)/C=C\SC(C(=O)Nc1ccccn1)C(=O)OCC (stereo not drawn) [Example 44, N-n-octyl-cis-3-{2-[ethyl-N-(2-pyridyl)malonamido]thio}acrylamide]
pest or weed control at 100 ppm [1]: 50%
MIC [7]: > 500 mg/L
pest or weed control at 100 ppm [2]: 0%
MIC [8]: 250 mg/L (≈ 593 µM)
pest or weed control at 100 ppm [3]: 0%
pest or weed control at 100 ppm [4]: 0%
pest or weed control at 100 ppm [6]: 75%

CCCCCCCCNC(=O)/C=C\SC(C(=O)Nc1cc(Cl)ccc1OC)C(=O)OCC (stereo not drawn) [Example 46, N-n-octyl-cis-3-{2-[ethyl-N-(2-methoxy-5-chlorophenyl)malonamido]thio}acrylamide]
pest or weed control at 100 ppm [1]: 80%
MIC [7]: > 500 mg/L
pest or weed control at 100 ppm [2]: 0%
MIC [8]: 250 mg/L (≈ 515 µM)
pest or weed control at 100 ppm [3]: 50%
pest or weed control at 100 ppm [4]: 0%
pest or weed control at 100 ppm [6]: 50%
